Test results reported in ChEMBL document CHEMBL5465560, “Selectivity Literature for EUbOPEN Chemogenomic Library” (2024).

How the values were obtained:
[1] = target: Tyrosine-protein kinase Lck (Homo sapiens, UniProt P06239); experiment: Selectivity interaction (KinomeScan (DiscoverX)) EUB0000699a LCK; details: at 10 µM
[2] = target: T1, Cyclin-dependent kinase-like 2 (Homo sapiens) (UniProt Q92772); experiment: Selectivity interaction (KinomeScan (DiscoverX)) EUB0000655a CDKL2; details: at 10 µM
T1 sequence (whole entry): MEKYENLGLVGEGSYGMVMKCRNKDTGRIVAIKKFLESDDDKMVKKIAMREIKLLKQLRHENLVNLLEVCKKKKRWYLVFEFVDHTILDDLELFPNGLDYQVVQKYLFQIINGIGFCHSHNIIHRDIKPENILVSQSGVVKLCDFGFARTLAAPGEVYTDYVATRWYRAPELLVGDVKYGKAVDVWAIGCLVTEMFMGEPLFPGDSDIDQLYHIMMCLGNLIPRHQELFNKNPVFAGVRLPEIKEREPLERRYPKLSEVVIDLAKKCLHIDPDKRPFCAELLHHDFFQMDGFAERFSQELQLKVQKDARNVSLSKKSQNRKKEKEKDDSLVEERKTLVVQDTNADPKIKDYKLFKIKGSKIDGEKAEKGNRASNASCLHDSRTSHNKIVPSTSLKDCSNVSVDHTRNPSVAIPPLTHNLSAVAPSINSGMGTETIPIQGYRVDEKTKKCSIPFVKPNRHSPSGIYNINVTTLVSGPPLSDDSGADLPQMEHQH

[3] = target: 5'-AMP-activated protein kinase catalytic subunit alpha-1 (Homo sapiens, UniProt Q13131); experiment: Selectivity interaction (Kinase panel (KiNativ target engagement assay in Jurkat cells)) EUB0001635a PRKAA1; type: cell-based; details: Selectivity number of off-targets 0.0, Selectivity number of targets 233.0, Source Knowledge https://www.sciencedirect.com/science/article/pii/S2451945619300674?via%3Dihub, at 1 µM
[4] = target: Wee1-like protein kinase (Homo sapiens) (UniProt P30291); experiment: Selectivity interaction (Kinase panel (Invitrogen)) EUB0000639a WEE1; details: at 200 nM
[5] = target: Serine/threonine-protein kinase SIK1 (Homo sapiens) (UniProt P57059); experiment: Selectivity interaction (KinomeScan (DiscoverX)) EUB0000607a SIK1; details: at 10 µM
[6] = target: T2, Ephrin type-A receptor 8 (Homo sapiens) (UniProt P29322); experiment: Selectivity interaction (KinomeScan (DiscoverX)) EUB0000045b EPHA8
T2 sequence (whole entry): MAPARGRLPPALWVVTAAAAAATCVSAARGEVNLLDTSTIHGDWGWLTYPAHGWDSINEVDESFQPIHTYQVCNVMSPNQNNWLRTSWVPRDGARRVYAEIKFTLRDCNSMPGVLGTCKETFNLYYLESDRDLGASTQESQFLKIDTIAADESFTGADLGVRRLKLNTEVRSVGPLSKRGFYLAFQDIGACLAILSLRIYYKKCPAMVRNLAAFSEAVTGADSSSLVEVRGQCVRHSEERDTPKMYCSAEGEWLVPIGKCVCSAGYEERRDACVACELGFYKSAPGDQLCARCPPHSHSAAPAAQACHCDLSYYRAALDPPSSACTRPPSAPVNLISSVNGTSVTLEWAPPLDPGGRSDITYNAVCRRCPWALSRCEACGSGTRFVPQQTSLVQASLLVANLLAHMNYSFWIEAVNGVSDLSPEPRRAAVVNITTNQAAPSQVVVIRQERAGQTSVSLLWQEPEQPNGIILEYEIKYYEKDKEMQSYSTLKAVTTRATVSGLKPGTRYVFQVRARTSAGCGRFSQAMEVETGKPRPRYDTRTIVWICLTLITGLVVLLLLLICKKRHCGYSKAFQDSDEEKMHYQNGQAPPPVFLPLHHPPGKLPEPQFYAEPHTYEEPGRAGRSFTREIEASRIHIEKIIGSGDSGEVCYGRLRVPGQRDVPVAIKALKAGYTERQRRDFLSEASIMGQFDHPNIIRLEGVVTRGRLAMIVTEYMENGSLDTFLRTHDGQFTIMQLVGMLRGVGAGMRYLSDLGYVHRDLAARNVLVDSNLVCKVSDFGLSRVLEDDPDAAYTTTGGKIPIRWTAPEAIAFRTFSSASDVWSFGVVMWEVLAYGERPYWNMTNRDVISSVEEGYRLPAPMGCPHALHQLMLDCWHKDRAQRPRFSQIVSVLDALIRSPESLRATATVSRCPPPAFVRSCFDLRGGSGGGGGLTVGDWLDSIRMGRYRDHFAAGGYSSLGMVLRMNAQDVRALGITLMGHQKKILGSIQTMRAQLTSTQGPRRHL

[7] = target: T3, Ephrin type-A receptor 1 (Homo sapiens) (UniProt P21709); experiment: Selectivity interaction (KinomeScan (DiscoverX)) EUB0000045b EPHA1
T3 sequence (whole entry): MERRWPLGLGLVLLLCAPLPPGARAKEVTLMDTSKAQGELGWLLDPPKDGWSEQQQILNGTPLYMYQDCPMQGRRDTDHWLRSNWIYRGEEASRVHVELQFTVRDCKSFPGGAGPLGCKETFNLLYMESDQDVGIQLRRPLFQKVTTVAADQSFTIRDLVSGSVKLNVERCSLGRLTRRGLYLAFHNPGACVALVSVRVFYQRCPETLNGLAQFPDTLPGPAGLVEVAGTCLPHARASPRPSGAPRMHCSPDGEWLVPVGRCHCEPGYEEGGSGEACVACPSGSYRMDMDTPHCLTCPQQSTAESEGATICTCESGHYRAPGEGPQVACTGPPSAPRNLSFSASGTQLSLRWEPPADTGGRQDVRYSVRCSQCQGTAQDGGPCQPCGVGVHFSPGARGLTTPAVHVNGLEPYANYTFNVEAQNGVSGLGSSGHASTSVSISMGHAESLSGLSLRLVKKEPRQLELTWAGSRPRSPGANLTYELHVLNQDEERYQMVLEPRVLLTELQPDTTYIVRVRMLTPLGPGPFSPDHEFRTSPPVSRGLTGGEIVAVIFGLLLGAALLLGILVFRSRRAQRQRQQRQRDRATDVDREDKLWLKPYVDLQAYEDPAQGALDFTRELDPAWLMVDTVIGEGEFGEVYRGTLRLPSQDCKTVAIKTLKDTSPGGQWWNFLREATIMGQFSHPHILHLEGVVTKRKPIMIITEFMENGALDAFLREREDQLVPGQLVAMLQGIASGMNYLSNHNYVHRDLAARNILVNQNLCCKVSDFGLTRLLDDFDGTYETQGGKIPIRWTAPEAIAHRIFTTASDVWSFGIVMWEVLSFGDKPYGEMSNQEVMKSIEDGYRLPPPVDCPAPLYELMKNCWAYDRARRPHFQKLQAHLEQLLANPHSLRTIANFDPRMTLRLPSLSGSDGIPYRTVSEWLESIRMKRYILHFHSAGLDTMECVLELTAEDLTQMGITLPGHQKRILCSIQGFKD

[8] = target: Serine/threonine-protein kinase SMG1 (Homo sapiens) (UniProt Q96Q15); experiment: Selectivity interaction (ActivX KiNativ screen (ex vivo kinase selectivity in human PBMCs)) EUB0001619a SMG1; type: cell-based; details: PBMC, at 1 µM

Sequence of Serine/threonine-protein kinase SIK1 (Homo sapiens) (P57059 whole entry): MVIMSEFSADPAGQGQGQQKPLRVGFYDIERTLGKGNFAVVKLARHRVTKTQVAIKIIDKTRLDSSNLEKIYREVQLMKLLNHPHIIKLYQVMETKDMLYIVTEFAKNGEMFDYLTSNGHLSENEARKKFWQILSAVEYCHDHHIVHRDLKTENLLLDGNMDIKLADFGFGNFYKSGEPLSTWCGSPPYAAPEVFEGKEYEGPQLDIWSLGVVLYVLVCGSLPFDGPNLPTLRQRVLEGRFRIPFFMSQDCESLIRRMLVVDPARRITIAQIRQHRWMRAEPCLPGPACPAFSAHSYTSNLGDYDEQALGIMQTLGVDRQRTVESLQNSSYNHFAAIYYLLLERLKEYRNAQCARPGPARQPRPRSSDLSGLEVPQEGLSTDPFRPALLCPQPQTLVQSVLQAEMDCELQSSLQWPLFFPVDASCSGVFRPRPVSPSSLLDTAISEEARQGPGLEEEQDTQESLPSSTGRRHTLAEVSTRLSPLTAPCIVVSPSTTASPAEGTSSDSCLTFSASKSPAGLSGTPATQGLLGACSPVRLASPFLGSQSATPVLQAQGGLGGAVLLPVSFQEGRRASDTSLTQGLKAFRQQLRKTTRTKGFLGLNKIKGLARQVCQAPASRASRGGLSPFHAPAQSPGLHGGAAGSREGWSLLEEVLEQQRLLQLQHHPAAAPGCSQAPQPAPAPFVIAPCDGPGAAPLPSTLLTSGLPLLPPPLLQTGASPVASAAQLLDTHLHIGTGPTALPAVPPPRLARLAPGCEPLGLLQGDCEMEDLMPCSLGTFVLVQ
Sequence of 5'-AMP-activated protein kinase catalytic subunit alpha-1 (Q13131 whole entry, looked up): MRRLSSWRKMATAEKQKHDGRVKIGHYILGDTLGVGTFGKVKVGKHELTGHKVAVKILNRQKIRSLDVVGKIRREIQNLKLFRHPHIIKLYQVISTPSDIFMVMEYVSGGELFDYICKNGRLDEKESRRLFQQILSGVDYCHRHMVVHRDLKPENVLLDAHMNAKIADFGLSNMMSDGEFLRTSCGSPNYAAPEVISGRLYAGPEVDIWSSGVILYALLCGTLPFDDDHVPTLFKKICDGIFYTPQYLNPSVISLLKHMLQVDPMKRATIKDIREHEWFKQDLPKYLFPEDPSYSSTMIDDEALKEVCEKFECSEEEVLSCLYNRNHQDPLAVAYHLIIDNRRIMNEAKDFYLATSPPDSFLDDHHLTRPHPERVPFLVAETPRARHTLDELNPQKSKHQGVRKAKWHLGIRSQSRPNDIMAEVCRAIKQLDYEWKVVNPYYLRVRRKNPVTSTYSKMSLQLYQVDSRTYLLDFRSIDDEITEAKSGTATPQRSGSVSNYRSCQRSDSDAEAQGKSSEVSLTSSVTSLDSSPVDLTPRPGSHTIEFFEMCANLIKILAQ
Sequence of Tyrosine-protein kinase Lck (P06239 2-509 limits assumed): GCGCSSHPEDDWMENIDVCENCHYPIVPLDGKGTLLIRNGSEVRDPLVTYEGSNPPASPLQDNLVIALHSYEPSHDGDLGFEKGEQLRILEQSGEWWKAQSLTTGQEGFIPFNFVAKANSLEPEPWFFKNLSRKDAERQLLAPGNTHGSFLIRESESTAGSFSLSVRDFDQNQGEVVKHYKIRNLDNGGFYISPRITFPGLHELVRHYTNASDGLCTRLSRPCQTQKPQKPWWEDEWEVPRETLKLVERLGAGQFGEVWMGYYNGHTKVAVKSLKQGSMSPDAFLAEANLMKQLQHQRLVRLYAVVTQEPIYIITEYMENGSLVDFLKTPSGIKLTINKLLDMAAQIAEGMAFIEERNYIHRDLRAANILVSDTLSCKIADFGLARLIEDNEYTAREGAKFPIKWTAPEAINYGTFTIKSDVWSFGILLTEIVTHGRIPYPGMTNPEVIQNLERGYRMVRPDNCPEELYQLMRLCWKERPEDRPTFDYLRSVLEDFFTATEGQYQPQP
Sequence of Wee1-like protein kinase (Homo sapiens) (P30291 whole entry, looked up): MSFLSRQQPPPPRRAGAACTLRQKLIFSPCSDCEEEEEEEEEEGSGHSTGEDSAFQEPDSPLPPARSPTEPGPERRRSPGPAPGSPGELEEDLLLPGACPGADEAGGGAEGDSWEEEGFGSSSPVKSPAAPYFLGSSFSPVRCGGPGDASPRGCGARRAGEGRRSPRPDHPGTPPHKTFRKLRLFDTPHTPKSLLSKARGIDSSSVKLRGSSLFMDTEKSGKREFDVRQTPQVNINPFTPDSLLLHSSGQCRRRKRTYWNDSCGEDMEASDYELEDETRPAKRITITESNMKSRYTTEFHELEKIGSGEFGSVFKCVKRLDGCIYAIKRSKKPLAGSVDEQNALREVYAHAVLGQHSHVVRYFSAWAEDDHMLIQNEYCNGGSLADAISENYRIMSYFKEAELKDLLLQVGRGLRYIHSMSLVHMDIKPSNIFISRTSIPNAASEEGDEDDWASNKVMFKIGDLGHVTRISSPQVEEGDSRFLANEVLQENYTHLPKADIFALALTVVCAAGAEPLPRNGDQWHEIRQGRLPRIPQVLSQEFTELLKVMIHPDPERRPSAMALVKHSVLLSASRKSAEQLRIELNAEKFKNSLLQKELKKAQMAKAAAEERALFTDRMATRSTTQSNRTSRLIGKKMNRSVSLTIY

Compound `CCN(CC)CCCCNc1ncc2cc(-c3cc(OC)cc(OC)c3)c(NC(=O)NC(C)(C)C)nc2n1` has a % of control [1] of 22%.

`CN(C)CCOc1ccc(-c2nc(-c3ccncc3)c(-c3ccc4c(c3)CC/C4=N\O)[nH]2)cc1` showed a % of control [2] of 100%.

In the case of `C=CC(=O)Nc1ccc(C(=O)Nc2[nH]nc3c2CN(C(=O)N[C@H](CN(C)C)c2ccccc2)C3(C)C)cc1`, the % of engagement [3] is reported as -51.7%.

`CC[C@@H]1[C@H](F)C(=O)N[C@@H]1COc1nccc2cc(C(N)=O)c(OC)cc12` [ZIMLOVISERTIB] gave a % of inhibition [4] of -0.606%.

With `CNC(=O)Nc1ccc(-c2nc(N3CC4CCC(C3)O4)c3cnn(C4CCC5(CC4)OCCO5)c3n2)cc1` the % of control [5] was 86%.

Compound `C=CC(=O)Nc1cc(-n2c(=O)ccc3cnc4ccc(-c5ccc(NS(C)(=O)=O)cc5)cc4c32)ccc1C` has a % of control ([6]; at 1 µM) of 100%, a % of control ([6]; at 10 µM) of 76% and a % of control ([7]; at 1 µM) of 92%. For the same compound, the % of control ([7]; at 10 µM) was 100%.

Work on `N#Cc1cccc(-c2c[nH]c3ncnc(N4CCOCC4)c23)c1` yielded a % of inhibition [8] of 13%.
